# Data from PubChem BioAssay AID1963436 (Molecular Pharmacology Branch, DTP, NCI, 2024).
# System: OVCAR-5 complex spheroid (HUVEC/MSC), viability % T/C
# Assay: Anticancer human tumor OVCAR-5 cell line growth inhibition [Asc];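 further: spheroids exposed to agents for 7 days before readout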;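 on viability, T/C: 100% = DMSO vehicle-treated wells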
# Conditions: for IC50: curve of first compound; for viability, T/C: stronger effect = lower value
# Description: Multicellular complex tumor spheroid response to apoptosis pathway targeting inhibitors Alrizomadlin, Pelcitoclax, and Dasminapant in combination with a variety of drugs and investigational agents in selected tumor cell lines
# The MDM2 inhibitor alrizomadlin, the Bcl-2/Bcl-xL inhibitor pelcitoclax, and the IAPs inhibitor dasminapant were evaluated both individually and in combination with standard of care and investigational anticancer small molecules within a complex spheroid model of solid tumors. . Complex spheroids include a stromal component modeled by human endothelial cells (HUVEC) and fibroblasts modeled by human mesenchymal stem cells (MSCs). The concentration ranges selected for each drug and investigational agent were based upon clinically achievable concentrations if the clinical Cmax of the agent was known.
# Compounds. The drugs and investigational agents: alrizomadlin (APG-115; NSC831270), pelcitoclax (APG-1252; NSC835773), dasminapant (APG-1387;NSC834197), TAK-243 (NSC785004), copanlisib (NSC809693), olaparib (NSC753686), talazoparib (NSC767125), cobimetinib (NSC 768068), eltanexor (KPT-8602, NSC 794443), abemaciclib (NSC 768073), sotorasib (NSC818433), adagrasib (NSC 831453), MRTX-1133 (NSC 836407), Iadademestat (ORY1001, NSC 806812), and RMC-4630 (NSC839698), were obtained from the NCI Developmental Therapeutics Program Chemical Repository. The FDA-approved anticancer drug set is available from the Developmental Therapeutics Program at https://dtp.cancer.gov/organization/dscb/obtaining/available plates.htm. […] The stock solutions were prepared in dimethyl sulfoxide (DMSO, Sigma-Aldrich, St. Louis, MO, cat. D2650) at 800-fold the tested concentration and stored at -70 degrees C prior to their use. All drugs and investigational agents were tested over a range starting from a high concentration at or near the clinical Cmax and decreasing in half-log increments. If the clinical Cmax for an agent had not been determined, the highest concentration tested was 10 microM.
# The patient-derived cancer (PDC) cell lines include five colon adenocarcinomas: 186277-243-T-J2-PDC, 616215-338-R-J1-PDC, 439559-082-T-J2-PDC, 463943-066-T-J2-PDC, and 519858-162-T-J1-PDC; three pancreatic carcinomas: 323965-272-R-J2-PDC, 521955-158-R6-J3-PDC, and 521955-158-R2-J5-PDC; two uterine sarcomas: 327498-152-R-J2-PDC and 993429-296-R-J1-PDC; two rhabdomyosarcomas: 755483-174-R-J1-PDC and 772245-204-R-J1-PDC; two soft tissue sarcomas: 126254-015-R-J1-PDC and 494315-158-R-J1-PDC; two malignant fibrous histiocytomas: 317291-083-R-J1-PDC and 596521-263-R-J1-PDC; two breast carcinomas: 171881-019-R-J1-PDC and 885512-296-R-J2-PDC; and one ovarian carcinoma: 6556581-035-R-J-PDC were obtained from the NCI PDMR, (https://pdmr.cancer.gov). The established cell lines HSSY-2 synovial sarcoma (RRID:CVCL 8719), SYO-1 synovial sarcoma (RRID:CVCL_7146), MPNST malignant peripheral neural sheath tumor were obtained from the Sloan Kettering Institute. The following established cell lines were purchased from the American Type Culture Collection (ATCC, Manassas, VA), Sor the received from the NCI repository:, PANC-1 pancreatic carcinoma (CRL-1469, RRID:CVCL_0480), OVCAR-5 ovarian carcinoma (RRID:CVCL_1628), OVCAR-8 ovarian carcinoma (RRID:CVCL_1629), , MCF-7 breast carcinoma (CRL-12584, RRID:CVCL_0031), MDA-MB-231 breast carcinoma (CRL-12532, RRID:CVCL_0062), NCI-H1876 small cell lung carcinoma (CRL-5902, RRID:CVCL_1503), NCI-H510A small cell lung carcinoma (HTB-184, RRID:CVCL_1565), NCI-H1417 (CRL-5869, RRID:CVCL_1469), and NCI-H196 small cell lung carcinoma (CRL-5823, RRID:CVCL_1509). Dr. Peter Houghton (Greehey Children's Cancer Research Institute, University of Texas Health Science Center, San Antonio, TX) provided Rh-18 rhabdomyosarcoma (RRID:CVCL_1659). Pooled donor human umbilical vein endothelial cells (HUVEC, Lonza, cat. CC-2519) and human mesenchymal stem cells (hMSC, Lonza, cat. PT-2501) were purchased from Lonza (Walkersville, MD).
# Cell Culture. […]
# [1] = second compound 0.03 µM, first compound 0.00316 µM
# [2] = second compound 0.03 µM, first compound 0.01 µM
# [3] = second compound 0.03 µM, first compound 0.0316 µM
# [4] = second compound 0.03 µM, first compound 0.1 µM
# [5] = second compound 0.0949 µM, first compound 0.00316 µM
# [6] = second compound 0.0949 µM, first compound 0.01 µM
# [7] = second compound 0.0949 µM, first compound 0.0316 µM
# [8] = second compound 0.0949 µM, first compound 0.1 µM
# [9] = second compound 0.3 µM, first compound 0.00316 µM
# [10] = second compound 0.3 µM, first compound 0.01 µM
# [11] = second compound 0.3 µM, first compound 0.0316 µM
# [12] = second compound 0.3 µM, first compound 0.1 µM
# [13] = second compound 0.949 µM, first compound 0.00316 µM
# [14] = second compound 0.949 µM, first compound 0.01 µM
# [15] = second compound 0.949 µM, first compound 0.0316 µM
# [16] = second compound 0.949 µM, first compound 0.1 µM
# [17] = second compound 3 µM, first compound 0.00316 µM
# [18] = second compound 3 µM, first compound 0.01 µM
# [19] = second compound 3 µM, first compound 0.0316 µM
# [20] = second compound 3 µM, first compound 0.1 µM
# [21] = second compound 0.03 µM, first compound 0.316 µM
# [22] = second compound 0.03 µM, first compound 1 µM
# [23] = second compound 0.0949 µM, first compound 0.316 µM
# [24] = second compound 0.0949 µM, first compound 1 µM
# [25] = second compound 0.3 µM, first compound 0.316 µM
# [26] = second compound 0.3 µM, first compound 1 µM
# [27] = second compound 0.949 µM, first compound 0.316 µM
# [28] = second compound 0.949 µM, first compound 1 µM
# [29] = second compound 3 µM, first compound 0.316 µM
# [30] = second compound 3 µM, first compound 1 µM
Compound,IC50 (second compound 0.03 µM),IC50 (second compound 0.0949 µM),IC50 (second compound 0.3 µM),IC50 (second compound 0.949 µM),IC50 (second compound 3 µM),"viability, T/C [1]","viability, T/C [2]","viability, T/C [3]","viability, T/C [4]","viability, T/C [5]","viability, T/C [6]","viability, T/C [7]","viability, T/C [8]","viability, T/C [9]","viability, T/C [11]","viability, T/C [12]","viability, T/C [15]","viability, T/C [16]","viability, T/C [19]","viability, T/C [20]",other results
Cn1ncnc1[C@H]1c2n[nH]c(=O)c3cc(F)cc(c23)N[C@@H]1c1ccc(F)cc1 + CCN1C(C(=O)NC23CCC(C(=O)O)(CC2)CC3)C(c2cccc(Cl)c2F)C2(C(=O)Nc3cc(Cl)ccc32)C12CCCCC2,> 0.1 µM,> 0.1 µM,> 0.1 µM,> 0.1 µM,> 0.1 µM,88.9%,94%,96%,91.1%,89.7%,91%,101%,82.8%,102%,98.3%,98.8%,106%,88.7%,106%,89%,"viability, T/C (second compound 0.03 µM, first compound 0.000316 µM): 108%; viability, T/C (second compound 0.03 µM, first compound 0.001 µM): 108%; viability, T/C (second compound 0.0949 µM, first compound 0.000316 µM): 103%; viability, T/C (second compound 0.0949 µM, first compound 0.001 µM): 109%; viability, T/C (second compound 0.3 µM, first compound 0.000316 µM): 112%; viability, T/C (second compound 0.3 µM, first compound 0.001 µM): 114%; viability, T/C [10]: 80.7%; viability, T/C (second compound 0.949 µM, first compound 0.000316 µM): 112%; viability, T/C (second compound 0.949 µM, first compound 0.001 µM): 121%; viability, T/C [13]: 106%; viability, T/C [14]: 97.4%; viability, T/C (second compound 3 µM, first compound 0.000316 µM): 109%; viability, T/C (second compound 3 µM, first compound 0.001 µM): 105%; viability, T/C [17]: 109%; viability, T/C [18]: 91.4%"
O=C(c1cc(Cc2n[nH]c(=O)c3ccccc23)ccc1F)N1CCN(C(=O)C2CC2)CC1 + CCN1C(C(=O)NC23CCC(C(=O)O)(CC2)CC3)C(c2cccc(Cl)c2F)C2(C(=O)Nc3cc(Cl)ccc32)C12CCCCC2,> 10 µM,> 10 µM,> 10 µM,> 10 µM,> 10 µM,,,96%,104%,,,101%,110%,,101%,97.2%,106%,105%,104%,115%,"viability, T/C [21]: 83.9%; viability, T/C [22]: 86.8%; viability, T/C (second compound 0.03 µM, first compound 3.16 µM): 92.5%; viability, T/C (second compound 0.03 µM, first compound 10 µM): 83.3%; viability, T/C [23]: 93.8%; viability, T/C [24]: 85.8%; viability, T/C (second compound 0.0949 µM, first compound 3.16 µM): 85.4%; viability, T/C (second compound 0.0949 µM, first compound 10 µM): 85%; viability, T/C [25]: 97.7%; viability, T/C [26]: 75.1%; viability, T/C (second compound 0.3 µM, first compound 3.16 µM): 86.3%; viability, T/C (second compound 0.3 µM, first compound 10 µM): 82.7%; viability, T/C [27]: 102%; viability, T/C [28]: 92%; viability, T/C (second compound 0.949 µM, first compound 3.16 µM): 89%; viability, T/C (second compound 0.949 µM, first compound 10 µM): 97.6%; viability, T/C [29]: 111%; viability, T/C [30]: 96.5%; viability, T/C (second compound 3 µM, first compound 3.16 µM): 88.9%; viability, T/C (second compound 3 µM, first compound 10 µM): 91.5%"
O=C(c1ccc(F)c(F)c1Nc1ccc(I)cc1F)N1CC(O)([C@@H]2CCCCN2)C1 + CCN1C(C(=O)NC23CCC(C(=O)O)(CC2)CC3)C(c2cccc(Cl)c2F)C2(C(=O)Nc3cc(Cl)ccc32)C12CCCCC2,0.0962 µM,0.0814 µM,0.0836 µM,0.0816 µM,0.0562 µM,90.3%,88.7%,68.4%,49.4%,99.7%,92.9%,66.8%,45.5%,94.9%,66.3%,45.4%,64.2%,46.8%,61.5%,37.6%,"viability, T/C [21]: 41.6%; viability, T/C [22]: 34.6%; viability, T/C [23]: 42.9%; viability, T/C [24]: 32.1%; viability, T/C [10]: 87.8%; viability, T/C [25]: 43.9%; viability, T/C [26]: 33.2%; viability, T/C [13]: 87.3%; viability, T/C [14]: 86.3%; viability, T/C [27]: 40%; viability, T/C [28]: 32%; viability, T/C [17]: 97.4%; viability, T/C [18]: 89.2%; viability, T/C [29]: 37%; viability, T/C [30]: 28.8%"
